Legend:
[1] = tested on: dermatophytes, moulds and yeasts; assay: Antimycotic in vitro activity, series dilution test (overall comparison); type: cell-based; conditions: 20° C., 24 to 96 hours
Protocol: The in vitro tests were carried out in series dilution test with germ inocula of an average of 5×10^4 germs/ml of substrate. The nutrient medium was (a) for dermatophytes and moulds: Sabourand's milieu d'epreuve and (b) for yeasts: meat extract/glucose broth. The incubation temperature was 20° C. and the duration of incubation was 24 to 96 hours in the case of yeasts, and 96 hours in the case of dermatophytes and moulds.

Candida = assay: Antimycotic in vivo activity (oral) in candidosis of mice; conditions: mice SPF-CF, i.v. Candida; oral 25-100 mg/kg 1 h before and 7 h after infection
Protocol: Mice of the SPF-CF type were infected intravenously with 1-2×10^6logarithmically growing Candida cells, which were suspended in physiological sodium chloride solution. The animals were treated orally one hour before and seven hours after the infection, with, in each case, 25-100 mg/kg of body weight of the formulations.
Untreated animals died 3 to 6 days after infection. The survival rate on the 6th day after infection was about 5% in the case of untreated control animals.

fungi (antimycotic) = conditions: prior art DE-OS 2,623,129 and DE-OS 2,851,086; cited from earlier work

Compound	antimycotic action in vitro compared with compounds (A), (B) and (C) [1]	action in vivo compared with compounds (A), (B) and (C) (Candida)	antimycotic properties (fungi (antimycotic))
Cc1ccc(C(C)(C)C(O)(Cn2ccnc2)c2ccc(Cl)cc2)cc1 (stereo not drawn) [Example 25]	better antimycotic action than the compounds (A), (B) and (C)		
CC(C)(Oc1ccc(F)cc1)C(O)(Cn1ccnc1)c1ccc(F)cc1 (stereo not drawn) [Example 32]		better action than the compounds (A), (B) and (C)	
CC(C)(Oc1ccccc1Cl)C(O)(Cn1cncn1)c1ccc(Cl)cc1 (stereo not drawn) [Example 19]	better antimycotic action than the compounds (A), (B) and (C)		
CC(C)(Cc1ccc(F)cc1)C(O)(Cn1cncn1)c1ccc(Cl)cc1 (stereo not drawn) [Example 11]	better antimycotic action than the compounds (A), (B) and (C)	better action than the compounds (A), (B) and (C)	
CC(C)(Cc1ccccc1)C(O)(Cn1cncn1)c1ccc(F)cc1 (stereo not drawn) [Example 6]	better antimycotic action than the compounds (A), (B) and (C)		
CC(C)(Cc1ccc(F)cc1)C(O)(Cn1cncn1)c1ccccc1 (stereo not drawn) [Example 15]	better antimycotic action than the compounds (A), (B) and (C)		
CC(C)(Cc1ccc(Cl)cc1)C(O)(Cn1ccnc1)c1ccc(Cl)cc1 (stereo not drawn) [Example 1, 2,4-bis(4-chlorophenyl)-3,3-dimethyl-1-(imidazol-1-yl)-butan-2-ol]	better antimycotic action than the compounds (A), (B) and (C)	better action than the compounds (A), (B) and (C)	
CCC(C)(Oc1ccc(Cl)cc1)C(O)(Cn1cncn1)c1ccc(F)cc1 (stereo not drawn) [Example 35]	better antimycotic action than the compounds (A), (B) and (C)	better action than the compounds (A), (B) and (C)	
CC(C)(Oc1ccc(Cl)cc1Cl)C(O)(Cn1ccnc1)c1ccc(Cl)cc1 (stereo not drawn) [Example 17]		better action than the compounds (A), (B) and (C)	
CC(C)(Oc1ccc(F)cc1)C(O)(Cn1cncn1)c1ccc(F)cc1 (stereo not drawn) [Example 30]		better action than the compounds (A), (B) and (C)	
CC(C)(Cc1ccc(F)cc1)C(O)(Cn1ccnc1)c1ccc(F)cc1 (stereo not drawn) [Example 33]		better action than the compounds (A), (B) and (C)	
OC(Cn1ccnc1)(c1cccc(Cl)c1)c1cccc(Cl)c1 [(B), 1,1-bis(3-chlorophenyl)-1-hydroxy-2-(imidazol-1-yl)-ethane]			good antimycotic properties
OC(Cc1ccc(Cl)cc1)(Cn1ccnc1)c1ccc(Cl)cc1 (stereo not drawn) [(A), 1,2-bis(4-chlorophenyl)-2-hydroxy-3-(imidazol-1-yl)-propane]			good antimycotic properties
Cc1cc(Cl)ccc1OC(C)(C)C(O)(Cn1cncn1)c1ccc(Cl)cc1 (stereo not drawn) [Example 21]	better antimycotic action than the compounds (A), (B) and (C)		
CC(C)(Oc1ccc(Cl)cc1)C(O)(Cn1cncn1)c1ccc(F)cc1 (stereo not drawn) [Example 29]	better antimycotic action than the compounds (A), (B) and (C)	better action than the compounds (A), (B) and (C)	
CC(C)(Sc1ccc(Cl)cc1)C(O)(Cn1ccnc1)c1ccc(Cl)cc1 (stereo not drawn) [Example 16]	better antimycotic action than the compounds (A), (B) and (C)		
CC(C)(Oc1ccccc1Cl)C(O)(Cn1ccnc1)c1ccc(Cl)cc1 (stereo not drawn) [Example 20]	better antimycotic action than the compounds (A), (B) and (C)		
CC(C)(c1ccc(Cl)cc1)C(O)(Cn1ccnc1)c1ccc(Cl)cc1 (stereo not drawn) [Example 3]	better antimycotic action than the compounds (A), (B) and (C)		

Compound	antimycotic action in vitro compared with compounds (A), (B) and (C) [1]	action in vivo compared with compounds (A), (B) and (C) (Candida)	antimycotic properties (fungi (antimycotic))
CC(C)(Cc1ccc(Cl)cc1Cl)C(O)(Cn1ccnc1)c1ccc(F)cc1 (stereo not drawn) [Example 12]	better antimycotic action than the compounds (A), (B) and (C)		
CC(C)(Sc1ccc(Cl)cc1)C(O)(Cn1cncn1)c1ccc(Cl)cc1 (stereo not drawn) [Example 14]	better antimycotic action than the compounds (A), (B) and (C)		
CC(C)(Oc1ccccc1)C(O)(Cn1ccnc1)c1ccc(Cl)cc1 (stereo not drawn) [Example 23]	better antimycotic action than the compounds (A), (B) and (C)		
CCC(C)(COc1ccc(Cl)cc1)C(O)(Cn1cncn1)c1ccc(Cl)cc1 (stereo not drawn) [Example 26]	better antimycotic action than the compounds (A), (B) and (C)	better action than the compounds (A), (B) and (C)	
CC(C)(Oc1ccc(Cl)cc1)C(O)(Cn1ccnc1)c1ccc(F)cc1 (stereo not drawn) [Example 31]		better action than the compounds (A), (B) and (C)	
CCC(C)(Oc1ccc(Cl)cc1)C(O)(Cn1cncn1)c1ccc(Cl)cc1 (stereo not drawn) [Example 27]		better action than the compounds (A), (B) and (C)	
OC(Cc1ccccc1)(Cn1cncn1)c1ccc(-c2ccccc2)cc1 (stereo not drawn) [(C), 2-(4-biphenyl)-2 hydroxy-1-phenyl-3-(1,2,4-triazol-1-yl)-propane]			good antimycotic properties
CC(C)(Oc1ccc(Cl)cc1Cl)C(O)(Cn1cncn1)c1ccc(Cl)cc1 (stereo not drawn) [Example 18]	better antimycotic action than the compounds (A), (B) and (C)	better action than the compounds (A), (B) and (C)	
CC(C)(Cc1ccc(Cl)cc1)C(O)(Cn1cncn1)c1ccc(F)cc1 (stereo not drawn) [Example 9]	better antimycotic action than the compounds (A), (B) and (C)	better action than the compounds (A), (B) and (C)	
CC(C)(Cc1ccc(Cl)cc1)C(O)(Cn1ccnc1)c1ccc(F)cc1 (stereo not drawn) [Example 8]	better antimycotic action than the compounds (A), (B) and (C)	better action than the compounds (A), (B) and (C)	
CC(C)(Cc1ccc(Cl)cc1)C(O)(Cn1cncn1)c1ccc(Cl)cc1 (stereo not drawn) [Example 4]	better antimycotic action than the compounds (A), (B) and (C)	better action than the compounds (A), (B) and (C)	
CC(C)(Oc1ccccc1)C(O)(Cn1cncn1)c1ccc(Cl)cc1 (stereo not drawn) [Example 22]	better antimycotic action than the compounds (A), (B) and (C)		
CCC(C)(Oc1ccc(F)cc1)C(O)(Cn1cncn1)c1ccc(F)cc1 (stereo not drawn) [Example 34]		better action than the compounds (A), (B) and (C)	
CC(C)(Cc1ccc(F)cc1)C(O)(Cn1cncn1)c1ccc(F)cc1 (stereo not drawn) [Example 28]	better antimycotic action than the compounds (A), (B) and (C)	better action than the compounds (A), (B) and (C)	
CC(C)(Cc1ccc(F)cc1)C(O)(Cn1ccnc1)c1ccc(Cl)cc1 (stereo not drawn) [Example 10]	better antimycotic action than the compounds (A), (B) and (C)		
CC(C)(c1ccc(Cl)cc1)C(O)(Cn1cncn1)c1ccc(Cl)cc1 (stereo not drawn) [Example 5]	better antimycotic action than the compounds (A), (B) and (C)		
CC(C)(Oc1ccc(Cl)cc1)C(O)(Cn1cncn1)c1ccc(Cl)cc1.Cl (stereo not drawn) [Example 2, 3-(4-chlorophenoxy)-2-(4-chlorophenyl)-3-methyl-1-(1,2,4-triazol-1-yl)-butan-2-ol hydrochloride]	better antimycotic action than the compounds (A), (B) and (C)		

From patent US4879385A, “Substituted hydroxyalkyl-azoles and their use as antimycotics” (Bayer Aktiengesellschaft, priority 1982, dated 1989)
